# Reference: ChEMBL document CHEMBL4665869, “New thiazolopyrimidine as anticancer agents: Synthesis, biological evaluation, DNA binding, molecular modeling and ADMET study” (Bioorg Med Chem Lett, 2020)
# Calls of active or inactive are those of the source. No cut-off for these calls is given here.
# Experiments:
# OVCAR-5 = test: Growth inhibition of human OVCAR-5 cells at 10 uM relative to control; format: functional
# SF-539 = test: Growth inhibition of human SF-539 cells at 10 uM relative to control; format: functional
# ACHN = test: Growth inhibition of human ACHN cells at 10 uM relative to control; format: functional
# [1] = Growth inhibition of human CNS cancer cells; format: functional; settings: CNS cell
# OVCAR-8 = test: Growth inhibition of human OVCAR-8 cells at 10 uM relative to control; format: functional; settings: read-out: GI
# NCI-H226 = test: Growth inhibition of human NCI-H226 cells at 10 uM relative to control; format: functional; settings: read-out: GI
# HOP-62 = test: Growth inhibition of human HOP-62 cells at 10 uM relative to control; format: functional
# KM12 = test: Growth inhibition of human KM12 cells at 10 uM relative to control; format: functional
# NCI-H460 = test: Growth inhibition of human NCI-H460 cells at 10 uM relative to control; format: functional
# SK-OV-3 = test: Growth inhibition of human SK-OV-3 cells at 10 uM relative to control; format: functional
# UACC-257 = test: Growth inhibition of human UACC-257 cells at 10 uM relative to control; format: functional
# HCC 2998 = test: Growth inhibition of human HCC 2998 cells at 10 uM relative to control; format: functional
# NCI-H522 = test: Growth inhibition of human NCI-H522 cells at 10 uM relative to control; format: functional
# HOP-92 = test: Growth inhibition of human HOP-92 cells at 10 uM relative to control; format: functional
# CAKI-1 = test: Growth inhibition of human CAKI-1 cells at 10 uM relative to control; format: functional
# SN12C = test: Growth inhibition of human SN12C cells at 10 uM relative to control; format: functional
# HT-29 = test: Growth inhibition of human HT-29 cells at 10 uM relative to control; format: functional
# MDA-MB-231 = test: Growth inhibition of human MDA-MB-231 cells at 10 uM relative to control; format: functional
# SK-MEL-5 = test: Growth inhibition of human SK-MEL-5 cells at 10 uM relative to control; format: functional
# SK-MEL-28 = test: Growth inhibition of human SK-MEL-28 cells at 10 uM relative to control; format: functional
# UO-31 = test: Growth inhibition of human UO-31 cells at 10 uM relative to control; format: functional
# RPMI-8226 = test: Growth inhibition of human RPMI-8226 cells at 10 uM relative to control; format: functional
# CCRF-CEM = test: Growth inhibition of human CCRF-CEM cells at 10 uM relative to control; format: functional
# Leukemia cell = test: Growth inhibition of human leukemia cancer cells; format: functional
# LOX IMVI = test: Growth inhibition of human LOX IMVI cells at 10 uM relative to control; format: functional
# PC-3 = test: Growth inhibition of human PC-3 cells at 10 uM relative to control; format: functional
# SNB-75 = test: Growth inhibition of human SNB-75 cells at 10 uM relative to control; format: functional; settings: read-out: GI
# TK-10 = test: Growth inhibition of human TK-10 cells at 10 uM relative to control; format: functional
# NCI-H23 = test: Growth inhibition of human NCI-H23 cells at 10 uM relative to control; format: functional
# [2] = system: Panel NCI-60 (60 carcinoma cell lines); test: Growth inhibition of human NCI60 cells; format: functional
# A549 = test: Growth inhibition of human A549 cells at 10 uM relative to control; format: functional
# IGROV-1 = test: Growth inhibition of human IGROV-1 cells at 10 uM relative to control; format: functional
# T47D = test: Growth inhibition of human T47D cells at 10 uM relative to control; format: functional; settings: read-out: GI
# Malme-3M = test: Growth inhibition of human Malme-3M cells at 10 uM relative to control; format: functional
# SR = test: Growth inhibition of human SR cells at 10 uM relative to control; format: functional
# DU-145 = test: Growth inhibition of human DU-145 cells at 10 uM relative to control; format: functional
# [3] = Growth inhibition of human renal cancer cells; format: functional; settings: Renal cancer cell line
# OVCAR-4 = test: Growth inhibition of human OVCAR-4 cells at 10 uM relative to control; format: functional; settings: read-out: GI
# [4] = Growth inhibition of human colon cancer cells; format: functional; settings: Colon cancer cell line
# [5] = Growth inhibition of human prostate cancer cells; format: functional; settings: Prostate tumor cell line
# HL-60(TB) = test: Growth inhibition of human HL-60(TB) cells at 10 uM relative to control; format: functional
# M14 = test: Growth inhibition of human M14 cells at 10 uM relative to control; format: functional
# COLO 205 = test: Growth inhibition of human COLO 205 cells at 10 uM relative to control; format: functional
# HCT-15 = test: Growth inhibition of human HCT-15 cells at 10 uM relative to control; format: functional
# Melanoma cell line = test: Growth inhibition of human melanoma cancer cells; format: functional
# DNA = test: Displacement of methyl green from DNA (unknown origin) assessed as DNA intercalation after 24 hrs by colorimetric assay; format: nucleic-acid assay
# NCI/ADR-RES = test: Growth inhibition of human NCI/ADR-RES cells at 10 uM relative to control; format: functional; settings: read-out: GI
# U-251 = test: Growth inhibition of human U-251 cells at 10 uM relative to control; format: functional
# SK-MEL-2 = test: Growth inhibition of human SK-MEL-2 cells at 10 uM relative to control; format: functional
# MCF7 = test: Growth inhibition of human MCF7 cells at 10 uM relative to control; format: functional
# SNB-19 = test: Growth inhibition of human SNB-19 cells at 10 uM relative to control; format: functional; settings: read-out: GI
# MOLT-4 = test: Growth inhibition of human MOLT-4 cells at 10 uM relative to control; format: functional
# RXF 393 = test: Growth inhibition of human RXF 393 cells at 10 uM relative to control; format: functional
# A498 = test: Growth inhibition of human A498 cells at 10 uM relative to control; format: functional
# NCI-H322M = test: Growth inhibition of human NCI-H322M cells at 10 uM relative to control; format: functional; settings: read-out: GI
# [6] = read-out: LC50 (the source's name)
compound,measurement,setting,value
COc1cc(/C=C/C2=CC(c3cc(OC)c(OC)c(OC)c3)N3C=C(C)SC3=N2)cc(OC)c1OC (centres undefined),growth inhibition (GI),OVCAR-5,Active
same,growth inhibition (GI),SF-539,Active
same,growth inhibition (GI),ACHN,Active
same,GI50,[1],1.85 µM
same,TGI,[1],10.2 µM
same,CC50,[1]; [6],54.2 µM
same,inhibition of growth at 10 µM,OVCAR-8,91.9%
same,inhibition of growth at 10 µM,NCI-H226,97.3%
same,growth inhibition (GI),HOP-62,Active
same,growth inhibition (GI),KM12,Active
same,growth inhibition (GI),NCI-H460,Active
same,growth inhibition (GI),SK-OV-3,Active
same,growth inhibition (GI),UACC-257,Active
same,growth inhibition (GI),HCC 2998,Active
same,growth inhibition (GI),NCI-H522,Active
same,growth inhibition (GI),HOP-92,Active
same,growth inhibition (GI),CAKI-1,Active
same,growth inhibition (GI),SN12C,Active
same,growth inhibition (GI),HT-29,Active
same,growth inhibition (GI),MDA-MB-231,Active
same,growth inhibition (GI),SK-MEL-5,Active
same,growth inhibition (GI),SK-MEL-28,Active
same,growth inhibition (GI),UO-31,Active
same,growth inhibition (GI),RPMI-8226,Active
same,growth inhibition (GI),CCRF-CEM,Active
same,GI50,Leukemia cell,0.43 µM
same,TGI,Leukemia cell,61.9 µM
same,CC50,Leukemia cell; [6],> 100 µM
same,growth inhibition (GI),LOX IMVI,Active
same,growth inhibition (GI),PC-3,Active
same,inhibition of growth at 10 µM,SNB-75,75.6%
same,growth inhibition (GI),TK-10,Active
same,growth inhibition (GI),NCI-H23,Active
same,GI50,[2],1.07 µM
same,LC50,[2],34.7 µM
same,TGI,[2],6.61 µM
same,growth inhibition (GI),A549,Active
same,growth inhibition (GI),IGROV-1,Active
same,inhibition of growth at 10 µM,T47D,92%
same,growth inhibition (GI),Malme-3M,Active
same,growth inhibition (GI),SR,Active
same,growth inhibition (GI),DU-145,Active
same,GI50,[3],1.49 µM
same,TGI,[3],4.38 µM
same,CC50,[3]; [6],54.7 µM
same,inhibition of growth at 10 µM,OVCAR-4,88.4%
same,GI50,[4],0.92 µM
same,TGI,[4],3.62 µM
same,CC50,[4]; [6],36 µM
same,GI50,[5],1.69 µM
same,TGI,[5],52.9 µM
same,CC50,[5]; [6],> 100 µM
same,growth inhibition (GI),HL-60(TB),Active
same,growth inhibition (GI),M14,Active
same,growth inhibition (GI),COLO 205,Active
same,growth inhibition (GI),HCT-15,Active
same,GI50,Melanoma cell line,0.99 µM
same,TGI,Melanoma cell line,3.37 µM
same,CC50,Melanoma cell line; [6],18.2 µM
same,IC50,DNA,36.13 µg/mL
same,inhibition of growth at 10 µM,NCI/ADR-RES,80.6%
same,growth inhibition (GI),U-251,Active
same,growth inhibition (GI),SK-MEL-2,Active
same,growth inhibition (GI),MCF7,Active
same,inhibition of growth at 10 µM,SNB-19,66.5%
same,growth inhibition (GI),MOLT-4,Active
same,growth inhibition (GI),RXF 393,Active
same,growth inhibition (GI),A498,Active
same,inhibition of growth at 10 µM,NCI-H322M,86.4%
